Test results from US20130178448A1, “Treatment of Respiratory Disorders” (priority 2010, published 2013).

What was measured:
[1] = tested on: Influenza A/PR/8/34 (H1N1 virus); experiment: In vivo mouse viral challenge (weight loss and survival of influenza-challenged mice); parameters: species or system mice (C57BLK/6); conditions: intraperitoneal, 335.6 μg/animal in 10 μl DMSO
Experimental: Five groups (n=10) of C57BLK/6 female mice (6-7 weeks old), were divided into five experimental groups containing ten animals each. On day 1, animals received an intranasal lethal dose (50 μl total, 25 μl nostril) of Influenza A/PR/8/34 under halothane induced anaesthesia.
The animals were weighed, and monitored for signs of infection daily up to day 6 when all animals were culled. FIGS. 1-4 represent the average weight loss per group and animal survival.
Using standard techniques as described above, mice were infected with a H1N1 virus which was allowed to become established in each of the subjects. Each test mouse was then treated with ibuprofen, either intraperitoneally (in DMSO) or orally (in the lipid/ethanol formulation, BC1054). The weight loss of both treated and untreated mice was then determined.

[2] = rat, in vivo, 4 h
Experimental: Vehicle and test compounds (Groups 1-7) were each administered orally (PO) to fasted rats. Each group included five animals. […] The animals were sacrificed four hours after dosing and gastric mucosal lesions were scored. A score of 50 percent or more (≧50%) relative to the aspirin-treated group (150 mg/kg PO, set as 100%) is considered positive in gastric irritation and is shown in parenthesis; and
Seven groups of rats, each group consisting of five animals, were each administered orally (PO) with test formulations and control compounds. […] Group 3 animals were treated with 150 mg/kg aspirin, and Group 4 animals were treated with 100 mg/kg of ibuprofen dissolved in 1% CMC vehicle.
The animals were sacrificed four hours after dosing with the test compound (or control vehicle) and gastric mucosal lesions were then scored according to the following criteria: 0=no lesions, 1=hyperemia, 2=one or two slight lesions, 3=more than two slight lesions or severe lesions, 4=very severe lesions (Herrerias et al., Dig. Dis. Sci., 2003). A score of 50 percent or more (≧50%) relative to the aspirin-treated group (150 mg/kg PO, set as 100%) was considered positive in gastric irritation and is shown in parenthesis in the table of FIG. 5.

SMILES | percentage survival rate compared with control mice ([1]; single dose day 3, especially after day four, FIG. 2) | higher reduction in weight loss than in the control mice ([1]; single dose day 3 post-challenge, vs vehicle control, FIG. 1) [%] | ulceration score relative to aspirin (150 mg/kg PO, set as 100%) [2] [%]
CC(C)Cc1ccc(C(C)C(=O)O)cc1 (stereo not drawn) [ibuprofen] | lower percentage survival rate than the control mice | ~30 | 
CC(=O)Oc1ccccc1C(=O)O [Aspirin] |  |  | 100
